Among the test systems are ACHN; RPMI-8226; SNB-19; OVCAR-5; UACC-257; NCI-H460; TK-10; HT-29; UACC-62; SK-MEL-2; OVCAR-8; EKVX; NCI-H226; HCT-15; CAKI-1.
Common to all, as to experiment: inhibition of tumour cell growth, NCI panel, 48 h

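96-well plates; 48 h exposure; 5 concentrations. Endpoints by linear interpolation between flanking doses. Not reached: highest tested concentration assigned. GI50 is the concentration that inhibits growth by half.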 Activity calls are given as the source filed them. Cut-off read from the data, not from the text of the source: active = GI50 up to about 1.1 µM and inactive = higher. Some results are limits rather than exact numbers.

For `[O-]c1c2c(nn1-c1ccccc1)c1ccccc1c[n+]2Cc1ccccc1`, the GI50 in the assay with ACHN, in the assay with RPMI-8226, in the assay on SNB-19, in the assay on OVCAR-5, with UACC-257 and with NCI-H460 was > 100 µM (inactive) each time. Moreover, the GI50 in the assay on TK-10, with HT-29, with UACC-62, in the assay on SK-MEL-2, with OVCAR-8 and in the assay on EKVX was > 100 µM (inactive) throughout. Also, the values for the GI50 in the assay with NCI-H226 and in the assay on HCT-15 were > 100 µM (inactive) and more than 100 µM, respectively.

`C[N+]1(CCNP(=S)(NCC[N+]2(C)Cc3c(ccc4c3OCO4)C3C2c2cc4c(cc2C[C@@H]3O)OCO4)NCC[N+]2(C)Cc3c(ccc4c3OCO4)C3C2c2cc4c(cc2C[C@@H]3O)OCO4)Cc2c(ccc3c2OCO3)C2C1c1cc3c(cc1C[C@H]2O)OCO3` (some centres not stated): the GI50 in the assay with ACHN is < 0.00191 µM (active); with RPMI-8226, < 0.00191 µM (active); in the assay with CAKI-1, 13.2 µM (inactive); with SNB-19 it was < 0.00191 µM (active); in the assay with OVCAR-5 it was < 0.00191 µM (active); with UACC-257, < 0.00191 µM (active). Also, the GI50 with NCI-H460, in the assay on TK-10, with HT-29, in the assay with UACC-62, with SK-MEL-2 and in the assay on OVCAR-8 was < 0.00191 µM (active) in each case. In addition, the GI50 in the assay with EKVX was < 0.00191 µM (active); in the assay with NCI-H226, 2.42 µM (inactive); with HCT-15, less than 0.00191 µM.

With `CN(C)CCNC(=O)c1cccc2c(Nc3ccc(S(N)(=O)=O)cc3)c3ccccc3nc12`, the GI50 in the assay on ACHN was 1.47 µM (inactive); with RPMI-8226, 7.08 µM (inactive); in the assay on CAKI-1 it was 3.25 µM (inactive); with SNB-19, 1.05 µM (active); with OVCAR-5, 2.32 µM (inactive); in the assay with UACC-257 it was 2.96 µM (inactive). The GI50 is 0.337 µM (active) with NCI-H460; 1.97 µM (inactive) in the assay with TK-10; 1.26 µM (inactive) in the assay with HT-29; 1.42 µM (inactive) in the assay on UACC-62; 1.59 µM (inactive) in the assay on SK-MEL-2; 0.435 µM (active) in the assay with OVCAR-8. For the same compound, the GI50 with EKVX is 3.05 µM (inactive); in the assay with NCI-H226, 1.05 µM (active); in the assay with HCT-15, 1.83 µM.

As to `COc1ccc(CNc2nc3ccc(C(F)(F)F)cc3nc2-c2ccccc2)cc1OC`, the GI50 with ACHN is 27.7 µM (inactive); in the assay with RPMI-8226 it was 35.9 µM (inactive); in the assay on SNB-19, > 100 µM (inactive); in the assay with OVCAR-5, > 100 µM (inactive); with UACC-257 it was 25.2 µM (inactive); with NCI-H460 it was 21.2 µM (inactive). The GI50 with TK-10 is 71.6 µM (inactive); with HT-29 it was 61.5 µM (inactive); in the assay with UACC-62 it was 30.1 µM (inactive); in the assay with SK-MEL-2 it was > 100 µM (inactive); in the assay with OVCAR-8 it was > 100 µM (inactive); in the assay on EKVX, > 100 µM (inactive). The results for the GI50 with NCI-H226 and in the assay with HCT-15 were > 100 µM (inactive) and 25.1 µM, respectively.

Turning to `CC#COP(=O)(OCC)OCC`, the GI50 in the assay with ACHN is > 100 µM (inactive); in the assay on RPMI-8226, 85.1 µM (inactive); with CAKI-1, > 100 µM (inactive); in the assay with SNB-19, > 100 µM (inactive); with OVCAR-5, > 100 µM (inactive); with UACC-257, > 100 µM (inactive). The GI50 in the assay with NCI-H460, in the assay with TK-10, in the assay with HT-29, with UACC-62, with SK-MEL-2 and in the assay on OVCAR-8 was > 100 µM (inactive) each time. Moreover, the values for the GI50 in the assay with EKVX, in the assay with NCI-H226 and in the assay on HCT-15 were > 100 µM (inactive), 23.9 µM (inactive) and more than 100 µM, respectively.

Take `C[C@@]12[Se]c3ccccc3[C@]1(C)[Se]c1ccccc12`: the GI50 in the assay with ACHN is > 100 µM (inactive); with RPMI-8226, 8.85 µM (inactive); in the assay with CAKI-1 it was > 100 µM (inactive); in the assay on OVCAR-5, > 100 µM (inactive); in the assay on TK-10, > 100 µM (inactive); in the assay on HT-29, 3.79 µM (inactive). Besides, the GI50 was 2.23 µM (inactive) in the assay on UACC-62; 3.85 µM (inactive) in the assay on SK-MEL-2; > 100 µM (inactive) with OVCAR-8; > 100 µM (inactive) in the assay on EKVX; > 100 µM (inactive) with NCI-H226.

For `COc1ccc2c(c1)Cc1c-2[nH]c2cc3c(cc2c1=O)OCO3`, the GI50 with ACHN was 7.94 µM (inactive); in the assay on RPMI-8226 it was 6.11 µM (inactive); in the assay with CAKI-1 it was 32.1 µM (inactive); with SNB-19, 23 µM (inactive); in the assay with NCI-H460, 10.3 µM (inactive); in the assay with TK-10 it was 9.31 µM (inactive). Moreover, the GI50 was 6.44 µM (inactive) in the assay with HT-29; 10.4 µM (inactive) in the assay on UACC-62; 6.14 µM (inactive) in the assay with SK-MEL-2; 19.1 µM (inactive) with OVCAR-8; 23.8 µM (inactive) with EKVX; 29.9 µM (inactive) in the assay on NCI-H226. Besides, in the assay with HCT-15, the GI50 was 9.91 µM.

`CCCCCCCCCCCCCCCCCC(CCCCCCCCCCCCCCCCC)OP(=O)(O)O`: the GI50 in the assay on ACHN, in the assay with RPMI-8226, in the assay on CAKI-1, in the assay on SNB-19, with OVCAR-5 and with UACC-257 was > 100 µM (inactive) throughout. Also, the GI50 in the assay on NCI-H460, with TK-10, with HT-29, in the assay on UACC-62, in the assay on SK-MEL-2 and in the assay with OVCAR-8 was > 100 µM (inactive) in each case. Moreover, the values for the GI50 with EKVX, in the assay on NCI-H226 and in the assay with HCT-15 were > 100 µM (inactive), > 100 µM (inactive) and more than 100 µM, respectively.

On to `Cc1ccc(NC(=O)C(=O)C(C2C(C)CC(=O)C2CC(=O)O)[N+](=O)[O-])cc1` (configuration not stated), for which the GI50 in the assay with ACHN, in the assay on RPMI-8226, in the assay with CAKI-1, with SNB-19, with OVCAR-5 and in the assay on UACC-257 was > 100 µM (inactive) in each case. Also, the GI50 in the assay on NCI-H460, in the assay on TK-10, in the assay on HT-29, in the assay on UACC-62, in the assay with SK-MEL-2 and in the assay on OVCAR-8 was > 100 µM (inactive) each time. Further, the figures for the GI50 with EKVX, with NCI-H226 and with HCT-15 were > 100 µM (inactive), > 100 µM (inactive) and more than 100 µM, respectively.

Regarding `COc1cc2c(c(OC)c1OC)-c1ccc(SC)c(=O)cc1[C@@H](NCc1ccc(F)cc1)CC2`, the GI50 with ACHN was < 0.0075 µM (active); in the assay with RPMI-8226 it was < 0.0075 µM (active); in the assay with CAKI-1, 1.69 µM (inactive); in the assay with SNB-19, < 0.0075 µM (active); in the assay on OVCAR-5, 2.54 µM (inactive); in the assay on UACC-257, 0.0117 µM (active). Further, the GI50 in the assay on NCI-H460 is < 0.0075 µM (active); with TK-10, 12.3 µM (inactive); in the assay with HT-29, < 0.0075 µM (active); in the assay with UACC-62, < 0.0075 µM (active); in the assay on SK-MEL-2, < 0.0075 µM (active); in the assay on OVCAR-8, < 0.0075 µM (active). For the same compound, the GI50 was 0.0693 µM (active) in the assay with EKVX, < 0.0075 µM (active) with NCI-H226 and less than 0.0075 µM with HCT-15.
